Reference: ChEMBL document CHEMBL1201862, “PubChem BioAssay data set” (2004)
Active and inactive are the calls of the source.

What was measured:
Type in all cases: functional
[1] = biological target: T1, Polyadenylate-binding protein 1 (Homo sapiens, UniProt P11940); test: PABP1 MLLE–PAM2 binding inhibitor potency, dose response, biochemical, fluorescence polarization, FITC-PAM2 peptide (AID 602259); conditions: read-out: IC50_Mean
Beta-galactosidase = Beta-galactosidase (Escherichia coli, UniProt Q8VNN2); test: PubChem AID 485352
[2] = Luminescence Cell-Based Dose Retest to Confirm Inhibitors of Cancer Stem Cells. [Related pubchem assays (depositor defined):AID2717, AID2721]; conditions: Homo sapiens
[3] = microbe, parasite or virus in culture; conditions: Mycobacterium tuberculosis
[4] = biological target: T2, Type-1 angiotensin II receptor (Homo sapiens, UniProt P30556); test: AT1 receptor antagonists, dose response, selectivity assay for APJ receptor antagonist project, cell-based, uHTS hits (AID 463214);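 note: antagonist potency against angiotensin II stimulated AT1 response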
T2 sequence (P30556 whole entry): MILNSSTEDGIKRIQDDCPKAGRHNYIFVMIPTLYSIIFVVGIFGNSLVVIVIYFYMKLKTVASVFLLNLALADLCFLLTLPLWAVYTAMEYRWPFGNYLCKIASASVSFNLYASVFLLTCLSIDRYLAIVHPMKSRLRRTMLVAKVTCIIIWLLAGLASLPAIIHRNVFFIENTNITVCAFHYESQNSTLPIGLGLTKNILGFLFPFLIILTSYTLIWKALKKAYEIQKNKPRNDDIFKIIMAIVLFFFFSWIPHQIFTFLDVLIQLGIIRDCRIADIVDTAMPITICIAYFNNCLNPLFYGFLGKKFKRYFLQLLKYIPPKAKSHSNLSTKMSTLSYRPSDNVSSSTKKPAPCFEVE

[5] = biological target: T1, Polyadenylate-binding protein 1; test: PABP1 MLLE–PAM2 interaction inhibitors, dose response, miRNA deadenylation inhibitor project, biochemical, fluorescence polarization, Cy5-PAM2 peptide, secondary (AID 602260); conditions: read-out: IC50_Mean
[6] = Counterscreen for activators of the function of SWI/SNF related, matrix associated, actin dependent regulator of chromatin, subfamily a, member 2 (SMARCA2, BRM): Luminescence-based cell-based high throughput dose response assay to identify non-selective compounds using the VP16 reporter assay.
[7] = biological target: SWI/SNF-related matrix-associated actin-dependent regulator of chromatin subfamily A member 2 (Homo sapiens, UniProt P51531); test: Luminescence-based cell-based high throughput dose response assay to identify activators of the function of SWI/SNF related, matrix associated, actin dependent regulator of chromatin, subfamily a, member 2 (SMARCA2, BRM).
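Throughout, for AC50: cells exposed to compound for roughly 70 hours or longer before luminescence read.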

Sequence of Beta-galactosidase (Q8VNN2 whole entry): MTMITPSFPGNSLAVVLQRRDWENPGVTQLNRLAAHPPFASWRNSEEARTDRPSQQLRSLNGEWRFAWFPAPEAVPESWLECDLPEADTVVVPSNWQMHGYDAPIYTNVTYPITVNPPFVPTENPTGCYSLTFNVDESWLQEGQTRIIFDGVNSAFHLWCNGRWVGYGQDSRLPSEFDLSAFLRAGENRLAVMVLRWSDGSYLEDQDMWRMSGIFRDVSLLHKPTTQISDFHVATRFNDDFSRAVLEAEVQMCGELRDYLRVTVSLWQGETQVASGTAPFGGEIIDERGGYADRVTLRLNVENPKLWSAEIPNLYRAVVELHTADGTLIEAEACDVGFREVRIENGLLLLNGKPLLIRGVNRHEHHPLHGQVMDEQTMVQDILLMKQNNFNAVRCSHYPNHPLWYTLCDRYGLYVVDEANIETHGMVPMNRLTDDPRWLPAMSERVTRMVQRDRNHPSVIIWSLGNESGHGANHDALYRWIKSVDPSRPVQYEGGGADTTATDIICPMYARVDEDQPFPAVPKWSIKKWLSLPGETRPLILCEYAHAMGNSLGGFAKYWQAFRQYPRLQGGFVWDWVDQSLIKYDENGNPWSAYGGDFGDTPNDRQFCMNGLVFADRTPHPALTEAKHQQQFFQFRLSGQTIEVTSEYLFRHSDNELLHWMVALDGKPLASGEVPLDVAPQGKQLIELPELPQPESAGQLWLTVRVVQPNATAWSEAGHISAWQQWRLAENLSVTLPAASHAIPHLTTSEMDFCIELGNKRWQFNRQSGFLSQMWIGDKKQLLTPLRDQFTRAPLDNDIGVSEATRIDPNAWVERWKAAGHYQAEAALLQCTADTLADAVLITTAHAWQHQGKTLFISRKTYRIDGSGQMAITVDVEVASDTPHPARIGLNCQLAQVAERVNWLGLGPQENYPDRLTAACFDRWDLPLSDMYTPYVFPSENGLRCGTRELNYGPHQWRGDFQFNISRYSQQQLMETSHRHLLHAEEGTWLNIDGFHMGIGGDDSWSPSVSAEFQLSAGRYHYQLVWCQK
T1 sequence (P11940 whole entry): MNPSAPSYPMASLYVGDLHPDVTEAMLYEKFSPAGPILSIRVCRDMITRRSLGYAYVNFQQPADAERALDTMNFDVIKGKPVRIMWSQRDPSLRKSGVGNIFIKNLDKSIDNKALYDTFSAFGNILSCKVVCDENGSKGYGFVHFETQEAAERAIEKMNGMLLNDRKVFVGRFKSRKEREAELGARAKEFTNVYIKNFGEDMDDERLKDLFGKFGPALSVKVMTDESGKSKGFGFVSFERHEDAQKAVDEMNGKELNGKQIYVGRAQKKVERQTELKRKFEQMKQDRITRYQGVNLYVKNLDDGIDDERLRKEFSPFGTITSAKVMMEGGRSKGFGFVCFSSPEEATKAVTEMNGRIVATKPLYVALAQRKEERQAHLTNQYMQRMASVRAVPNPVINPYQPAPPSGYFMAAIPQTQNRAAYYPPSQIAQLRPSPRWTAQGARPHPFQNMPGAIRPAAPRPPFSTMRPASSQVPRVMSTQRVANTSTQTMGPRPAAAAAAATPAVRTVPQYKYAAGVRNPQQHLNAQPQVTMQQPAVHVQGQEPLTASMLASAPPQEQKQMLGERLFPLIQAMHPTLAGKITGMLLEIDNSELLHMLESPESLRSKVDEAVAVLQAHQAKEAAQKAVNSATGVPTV
Sequence of SWI/SNF-related matrix-associated actin-dependent regulator of chromatin subfamily A member 2 (P51531 whole entry): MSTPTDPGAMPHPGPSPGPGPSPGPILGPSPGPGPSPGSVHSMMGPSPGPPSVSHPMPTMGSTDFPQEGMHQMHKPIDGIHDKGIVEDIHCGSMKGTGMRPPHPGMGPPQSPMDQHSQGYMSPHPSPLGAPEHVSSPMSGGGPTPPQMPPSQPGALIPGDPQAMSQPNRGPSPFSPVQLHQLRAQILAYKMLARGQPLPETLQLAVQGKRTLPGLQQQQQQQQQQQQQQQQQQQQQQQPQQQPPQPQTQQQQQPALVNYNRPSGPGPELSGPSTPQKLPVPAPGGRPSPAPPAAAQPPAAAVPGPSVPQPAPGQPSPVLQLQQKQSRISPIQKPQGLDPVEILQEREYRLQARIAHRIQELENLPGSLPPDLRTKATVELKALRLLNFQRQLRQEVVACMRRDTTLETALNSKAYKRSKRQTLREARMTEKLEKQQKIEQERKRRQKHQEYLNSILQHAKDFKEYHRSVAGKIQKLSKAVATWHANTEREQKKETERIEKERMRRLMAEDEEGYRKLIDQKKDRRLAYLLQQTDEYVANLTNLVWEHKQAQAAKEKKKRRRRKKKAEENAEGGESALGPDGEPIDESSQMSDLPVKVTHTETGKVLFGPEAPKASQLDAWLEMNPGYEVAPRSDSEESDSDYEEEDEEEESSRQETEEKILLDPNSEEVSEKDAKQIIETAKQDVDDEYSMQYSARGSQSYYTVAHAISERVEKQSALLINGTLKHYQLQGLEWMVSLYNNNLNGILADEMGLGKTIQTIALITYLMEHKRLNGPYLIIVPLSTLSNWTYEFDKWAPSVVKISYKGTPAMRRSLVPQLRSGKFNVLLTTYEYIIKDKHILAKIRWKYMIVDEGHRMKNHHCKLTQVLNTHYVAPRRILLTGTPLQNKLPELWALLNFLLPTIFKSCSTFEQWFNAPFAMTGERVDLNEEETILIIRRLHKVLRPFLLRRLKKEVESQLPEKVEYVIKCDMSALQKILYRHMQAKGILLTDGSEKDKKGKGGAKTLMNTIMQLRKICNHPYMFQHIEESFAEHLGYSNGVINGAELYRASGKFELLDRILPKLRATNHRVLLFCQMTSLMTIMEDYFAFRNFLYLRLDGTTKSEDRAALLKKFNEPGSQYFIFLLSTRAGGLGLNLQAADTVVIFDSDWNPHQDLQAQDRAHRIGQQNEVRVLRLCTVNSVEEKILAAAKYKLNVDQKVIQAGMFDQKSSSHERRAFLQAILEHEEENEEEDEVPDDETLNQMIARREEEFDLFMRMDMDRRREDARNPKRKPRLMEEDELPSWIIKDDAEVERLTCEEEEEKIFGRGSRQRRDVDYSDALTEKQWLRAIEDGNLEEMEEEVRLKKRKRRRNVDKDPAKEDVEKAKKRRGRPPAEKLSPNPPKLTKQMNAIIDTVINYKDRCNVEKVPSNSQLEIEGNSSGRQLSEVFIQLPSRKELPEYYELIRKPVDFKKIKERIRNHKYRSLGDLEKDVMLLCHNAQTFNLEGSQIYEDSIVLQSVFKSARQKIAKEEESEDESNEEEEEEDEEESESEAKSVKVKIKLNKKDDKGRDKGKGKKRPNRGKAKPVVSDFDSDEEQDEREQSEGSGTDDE

Row | SMILES | IC50 [1] | EC50 (Beta-galactosidase) | AC50 [2] | CC50 [3] | IC50 [4] | IC50 [5] | EC50 [6] | EC50 [7]
1 | Cc1csc(N=C(S)Nc2cccc(Cl)c2)n1 | > 66 µM (inactive) | > 40 µM (inactive) | 7.09 µM (active) | 33.1 µM (active) | > 40 µM (not active) | > 66 µM (inactive) |  | 
2 | O=C(CNc1cccc(Cl)c1)c1ccc(Br)cc1 |  | > 40 µM (inactive) |  |  | 15 µM (active) |  | > 91.2 µM (inactive) | > 91.2 µM (inactive)
